# Laboratory results taken from patent publication US20170224679A1, “Use of CXCR2 Antagonists For The Prevention and/or Treatment of Chemotherapy Induced Peripheral Neuropathy (CIPN)” (GlaxoSmithKline Intellectual Property Development Limited, priority 2014, published 2017).
# What was measured:
# Format in all cases: cell-based
# CXCR1 receptor = biological target: T1, CXCR1 receptor (Homo sapiens, UniProt P25024); experiment: GPCR Arrestin Assay (DiscoveRX PathHunter), CXCR1; parameters: host or cells: PathHunter CHO cell lines; conditions: PathHunter CHO cells, agonist at EC80; read-out: pIC50 against the CXCR1 receptor (converted)
# T1 sequence (P25024 1-350): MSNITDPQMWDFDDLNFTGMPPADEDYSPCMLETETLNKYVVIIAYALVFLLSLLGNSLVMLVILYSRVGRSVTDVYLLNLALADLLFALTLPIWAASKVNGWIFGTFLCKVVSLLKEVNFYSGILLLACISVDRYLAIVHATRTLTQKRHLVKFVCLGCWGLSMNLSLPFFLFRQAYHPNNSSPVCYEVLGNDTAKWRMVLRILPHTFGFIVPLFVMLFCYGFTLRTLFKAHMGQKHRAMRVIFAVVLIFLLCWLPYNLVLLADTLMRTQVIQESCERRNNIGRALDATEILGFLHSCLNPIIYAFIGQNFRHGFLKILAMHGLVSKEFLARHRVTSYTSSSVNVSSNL
# Experimental: (§1) Certain compounds of the invention were also tested by DiscoveRX Corporation (42501 Albrae Street, Fremont, Calif. 94538, United States) in their GPCR Arrestin Assay to determine their activity against a panel of receptors including CXCR2 and CXCR1. PathHunter CHO cell lines were expanded from freezer stocks according to standard procedures. Cells were seeded in a total volume of 20 μL into white walled, 384-well microplates and incubated at 37° C. for the appropriate time prior to testing. The cells were pre-incubated with antagonist followed by agonist challenge at the EC80 concentration. Intermediate dilution of sample stocks was performed to generate 5× sample in assay buffer. 5 μL of 5× sample was added to cells and incubated at 37° C. or room temperature for 30 minutes. […] Assay signal was generated through a single addition of 12.5 or 15 μL (50% v/v) of PathHunter Detection reagent cocktail, followed by one hour incubation at room temperature. Microplates were read following signal generation with a PerkinElmer Envision™ instrument for chemiluminescent signal detection. Compound activity was analyzed using CBIS data analysis suite (ChemInnovation, Calif.).
# CXCR2 receptor [1] = biological target: T2, CXCR2 receptor (Homo sapiens, UniProt P25025); experiment: CXCR2 Tango assay; parameters: fused on or other part: TEV protease cleavage site and Gal4-VP16 transcription factor fused to the receptor (Invitrogen Tango construct); no part of the key; conditions: Tango reporter gene, 80 nM hCXCL1; read-out: pIC50 against the CXCR2 receptor (converted)
# T2 sequence (P25025 1-360): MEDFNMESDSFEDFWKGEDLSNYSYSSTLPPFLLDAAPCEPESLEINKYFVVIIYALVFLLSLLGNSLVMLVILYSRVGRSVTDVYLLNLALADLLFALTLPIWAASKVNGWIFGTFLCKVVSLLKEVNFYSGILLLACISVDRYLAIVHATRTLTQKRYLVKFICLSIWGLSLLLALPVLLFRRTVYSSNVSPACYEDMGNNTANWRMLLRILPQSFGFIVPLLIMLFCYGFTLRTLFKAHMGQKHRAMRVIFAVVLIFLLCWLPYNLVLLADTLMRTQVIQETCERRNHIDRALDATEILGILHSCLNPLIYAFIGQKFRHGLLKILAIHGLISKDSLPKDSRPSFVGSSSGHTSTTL
# Text: The assay measures ligand-induced activation of the receptor CXCR2 in a stable cell line containing the recombinant human CXCR2 linked to a TEV protease site and a Gal4-VP16 transcription factor (Invitrogen). Ligand binding to the receptor results in the recruitment of arrestin proteins (tagged with protease) to the receptor and triggers the release of a tethered transcription factor. The transcription factor enters the nucleus and activates the transcription of the reporter gene. The ability of a compound to inhibit CXCR2 activation is indirectly assessed by measuring the reporter gene activity.
# A vial of cryopreserved cells was removed from liquid nitrogen and rapidly thawed in a water bath at 37° C. with gentle agitation. The cell contents were collected and resuspended in Assay Medium at a density of ˜200,000 cells/ml. All test compounds were dissolved in DMSO at a concentration of 10 mM and then were serially diluted to generate a 10-point dose response curve into 384-well assay plate (Greiner 781090) using an Echo (Labcyte) concentration-response program (50 nl/well). The cell-free, un-stimulated and positive controls were loaded with 50 nl/well pure DMSO to ensure that the DMSO concentration was constant across the plate for all assays. Using Multi-drop Combi (Thermo) with standard cassette, 50 μl of Assay Medium was added to cell-free control wells in compound-containing assay plate; 50 μl of the cell suspension without hCXCL1 (a CXCR2 ligand) was added to un-stimulated control wells (10,000 cells per well); and 50 μl of the cell suspension with 80 nM hCXCL1 was added to the rest of wells of the assay plate (10,000 cells per well). The cells were incubated overnight at 37° C./5% CO2·10 μl of 6× substrate mixture (LiveBLAzer™-FRET B/G substrate (CCF4-AM) Cat #K1096 from Invitrogen, Inc.) was added to each well using Multi-drop Combi (Thermo) with small-tube cassette and the plate was incubated at room temperature for 2 h in the dark. The plate was then read on EnVision using one excitation channel (409 nm) and two emission channels (460 nm and 530 nm).
# The blue/green emission ratio (460 nm/530 nm) was calculated for each well by dividing the background-subtracted Blue emission values by the background-subtracted Green emission values. The dose response curve was based on sigmoidal dose-response model. All ratio data was normalized based upon the maximum emission ratio of positive control (hCXCL1) and minimum emission ratio of negative control (DMSO) on each plate.
# CXCR2 receptor [2] = biological target: T2, CXCR2 receptor; experiment: GPCR Arrestin Assay (DiscoveRX PathHunter), CXCR2; parameters: host or cells: PathHunter CHO cell lines
# Experimental: as §1
# CXCR2 receptor [3] = biological target: T2, CXCR2 receptor; experiment: Human whole blood assay version ii) (CD11b, GROα stimulated); parameters: Assay d) measures the cellular functional activity to the native expressed human CXCR2 in whole blood; endogenous in cells; host or cells: human whole blood (neutrophils); conditions: 33 nM GROα, neutrophil CD11b, read-out: pIC50 against the CXCR2 receptor (converted)
# Experimental: Blood was withdrawn by venipuncture from consented adults and poured into a Sterilin tube containing an anti-coagulant Heparin (10 μL/mL of blood). All the test compounds were dissolved in DMSO to 4 mM and serial diluted across the plate, 1 in 3 to provide 10 point dose response curves. The compounds were then diluted 100 fold in -PBS [Phosphate buffered saline (without Calcium Chloride and Magnesium Chloride)] after which, 1 μL was dispensed in 96 U bottom Costar plates using an FX. This was done to reduce the final DMSO concentration to 0.25% and for compounds to be screened at 10 uM final assay concentration, after addition of blood.
# 10 μL of blood was transferred to the compound plate using a multi-channel pipette, gently tapped and incubated for 15 minutes, at 37° C. After 15 minutes, the stimulant GROα was diluted to 100 nM in 0.1% BSA (Albumin Bovine Serum)-PBS and 5 μL is dispensed across the whole plate for a final concentration of 33 nM. The plate was gently tapped and incubated further for 15 minutes at 37° C. […]
# Samples were run on a Becton and Dickinson (BD)-Acurri C6 Flow Cytometer using a HyperCyt sampling apparatus (IntelliCyt) with a flow rate 2 μL/sec. CD11 b upregulation is monitored in neutrophils and identified using a combination of both side scatter and CD16 expression.
compound,measurement,setting,value
"CC1=CCC[C@H]1NC(=O)Nc1ccc(Cl)c(S(=O)(=O)[C@@]2(C)CCOC2)c1O [Compound of Formula (J), 1-(4-chloro-2-hydroxy-3-(((S)-3-methyltetrahydrofuran-3-yl)sulfonyl)phenyl)-3-((R)-2-methylcyclopent-2-en-1-yl)urea]",IC50,CXCR1 receptor,3980 nM
same,IC50,CXCR2 receptor [1],1 nM
same,selectivity for CXCR2 over CXCR1,CXCR2 receptor [2]; GPCR Arrestin Assay e),730 fold
same,IC50,"CXCR2 receptor [2]; PathHunter CHO cells, agonist at EC80, read-out: pIC50 against the CXCR2 receptor (converted)",5.01 nM
same,IC50,CXCR2 receptor [3],39.8 nM
